Source: US20020016341A1, “Heterocyclic thioester and ketone hair growth compositions and uses” (priority 1998, published 2002)
Read-outs that look alike come from different tables or passages of the source. One block for each compound: values may come before it.

Experiments:
FKBP12 = FKBP12 (Homo sapiens, UniProt P62942); assay: Ki test: inhibition of peptidyl-prolyl isomerase (rotamase) activity, chymotrypsin-coupled assay; format: biochemical
Source text: The inhibition of the prolyl peptidyl cis-trans isomerase activity of FKBP may be measured as an indicator of this affinity.
Inhibition of the peptidyl-prolyl isomerase (rotamase) activity of the compounds used in the inventive methods and pharmaceutical compositions can be evaluated by known methods described in the literature (Harding et al., Nature, 1989, 341:758-760; Holt et al. J. Am. Chem. Soc., 115:9923-9938).
The cis-trans isomerization of an alanine-proline bond in a model substrate, N-succinyl-Ala-Ala-Pro-Phe-p-nitroanilide, is monitored spectrophotometrically in a chymotrypsin-coupled assay, which releases paranitroanilide from the trans form of the substrate. The inhibition of this reaction caused by the addition of different concentrations of inhibitor is determined, and the data is analyzed as a change in first-order rate constant as a function of inhibitor concentration to yield the apparent K1 values.
In a plastic cuvette are added […] of ice cold assay buffer (25 mM HEPES, pH 7.8, 100 mM NaCl), 10 mL of FKBP (2.5 mM in 10 mM Tris-Cl pH 7.5, 100 mM NaCl, 1 mM dithiothreitol), 25 mL of chymotrypsin (50 mg/ml in 1 mM HCl) and […] of test compound at various concentrations in dimethyl sulfoxide. The reaction is initiated by the addition of 5 mL of substrate (succinyl-Ala-Phe-Pro-Phe-para-nitroanilide, 5 mg/mL in 2.35 mM LiCl in trifluoroethanol).
The absorbance at 390 nm versus time is monitored for 90 seconds using a spectrophotometer and the rate constants are determined from the absorbance versus time data files.

C57 black 6 mice [1] = assay: In vivo hair generation test, Experiment A; conditions: 30 μM topical, 3 applications over 5 days, after six weeks
Source text: Care was taken not to nick or cause abrasion to the underlaying dermal layers. The animals were in anagen growth phase, as indicated by the pinkish color of the skin. […] Hair growth was quantitated by the percent of shaved area covered by new hair growth during this time period.

C57 black 6 mice [2] = assay: In vivo hair generation test, Experiment B; conditions: one micromole per milliliter topical, three times per week, 14 days after initiation of treatment
Description: Care was taken not to nick or cause abrasion to the underlying dermal layers. The animals were in anagen growth phase when shaved. […] The animals were treated three times per week, and hair growth was evaluated 14 days after initiation of treatment.

[3] = apparent Ki, rotamase inhibition, read-out: Ki

Chain of FKBP12 (P62942 whole entry, species assumed): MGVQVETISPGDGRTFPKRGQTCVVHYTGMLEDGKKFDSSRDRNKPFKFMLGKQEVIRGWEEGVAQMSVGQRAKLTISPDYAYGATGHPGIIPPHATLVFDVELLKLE

Compound: 1,5-Diphenyl-3-pentyl 1-(3,3-dimethyl-1,2-dioxopentyl)-2-piperidinecarbothioate [Compound 40]
- Ki (FKBP12; [3]): 1230 nM

Compound: 2,2-Diphenylethyl (2S)-1-(3,3-dimethyl-2-oxopentanoyl)-2-piperidinecarbothioate [Compound 49]
- Ki (FKBP12; [3]): 1330 nM

Compound: 2-Phenyl-1-ethyl 1-(2-phenyl-1,2-dioxoethyl)-2-piperidinecarbothioate [Compound 14]
- Ki (FKBP12; [3]): 313 nM

Compound: 2-Phenyl-1-ethyl 1-(3,3-dimethyl-1,2-dioxopentyl)-2-piperidinecarbothioate [Compound 10]
- Ki (FKBP12; [3]): 12 nM

Compound: 2-Phenyl-1-ethyl (2S)-1-(1-cyclopentyl-1,2-dioxoethyl)-2-pyrrolidinecarbothioate [Compound 28]
- Ki (FKBP12; [3]): 108 nM

Compound: 2-Phenyl-1-ethyl (2S)-1-(2-cyclohexyl-1,2-dioxoethyl)-2-pyrrolidinecarbothioate [Compound 12]
- Ki (FKBP12; [3]): 442 nM

Compound: 3-(1-Naphthyl)-1-propyl 1-(3,3-dimethyl-1,2-dioxopentyl)piperidine-2-carbothioate [Compound 44]
- Ki (FKBP12; [3]): 188 nM

Compound: 3-(1-Naphthyl)propyl (2S)-1-(3,3-dimethyl-2-oxopentanoyl)-2-pyrrolidinecarbothioate [Compound 47]
- Ki (FKBP12; [3]): 21 nM

Compound: 3-(2-Chlorophenyl)propyl (2S)-1-(3,3-dimethyl-2-oxopentanoyl)-2-pyrrolidinecarbothioate [Compound 61]
- Ki (FKBP12; [3]): 139 nM

Compound: 3-(2-Fluorophenyl)propyl (2S)-1-(3,3-dimethyl-2-oxopentanoyl)-2-pyrrolidinecarbothioate [Compound 57]
- Ki (FKBP12; [3]): 57 nM

Compound: 3-(3-Chlorophenyl)propyl (2S)-1-(3,3-dimethyl-2-oxopentanoyl)-2-pyrrolidinecarbothioate [Compound 54]
- Ki (FKBP12; [3]): 37 nM

Compound: 3-(3-Fluorophenyl)propyl 1-(3,3-dimethyl-2-oxopentanoyl)-2-piperidinecarbothioate [Compound 64]
- Ki (FKBP12; [3]): 163 nM

Compound: 3-(3-Fluorophenyl)propyl (2S)-1-(3,3-dimethyl-2-oxopentanoyl)-2-pyrrolidinecarbothioate [Compound 58]
- Ki (FKBP12; [3]): 79 nM

Compound: 3-(3-Pyridyl)-1-propyl (2S)-1-(2-cyclohexyl-1,2-dioxoethyl)-2-pyrrolidinecarbothioate [Compound 35]
- Ki (FKBP12; [3]): 62 nM

Compound: 3-(para-Methoxyphenyl)-1-propyl 1-(2-phenyl-1,2-dioxoethyl)piperidine-2-carbothioate [Compound 43]
- Ki (FKBP12; [3]): 259 nM

Compound: 3-Phenyl-1-propyl 1-(3,3-dimethyl-1,2-dioxobutyl)-2-piperidinecarbothioate [Compound 29]
- Ki (FKBP12; [3]): 59 nM

Compound: 3-Phenyl-1-propyl (2S)-1-(2-cyclohexyl-1,2-dioxoethyl)-2-pyrrolidinecarbothioate [Compound 32]
- Ki (FKBP12; [3]): 362 nM

Compound: 3-Phenylpropyl 1-(3,3-dimethyl-2-oxopentanoyl)-2-piperidinecarbothioate [Compound 60]
- Ki (FKBP12; [3]): 90 nM

Compound: 4,4-Di(para-fluorophenyl)butyl 1-(3,3-dimethyl-2-oxopentanoyl)-2-pyrrolidinecarbothioate [Compound 46]
- Ki (FKBP12; [3]): 757 nM

Compound: 4-Phenyl-1-butyl 1-(1,2-dioxo-3,3-dimethylbutyl)-2-piperidinecarbothioate [Compound 39]
- Ki (FKBP12; [3]): 347 nM

Compound: 4-Phenyl-1-butyl (2S)-1-(2-cyclohexyl-1,2-dioxoethyl)-2-pyrrolidinecarbothioate [Compound 33]
- Ki (FKBP12; [3]): 1700 nM

Compound: 4-Phenyl-1-butyl (2S)-1-(3,3-dimethyl-1,2-dioxopentyl)-2-pyrrolidinecarbothioate [Compound 34]
- Ki (FKBP12; [3]): 34 nM

Compound: 4-Phenylbutyl 1-(3,3-dimethyl-2-oxopentanoyl)-2-piperidinecarbothioate [Compound 59]
- Ki (FKBP12; [3]): 962 nM

Compound: CCC(C)(C)C(=O)C(=O)N1CCC[C@H]1C(=O)CCCCc1ccccc1 [Compound 1]
- Ki (FKBP12; [3]): 31 nM

Compound: CCC(C)(C)C(=O)C(=O)N1CCC[C@H]1C(=O)SCc1csc2ccccc12 [Compound 11, (3-Thioindolyl)methyl (2S)-1-(3,3-dimethyl-1,2-dioxopentyl)-2-pyrrolidinecarbothioate]
- Ki (FKBP12; [3]): 299 nM

- Ki (FKBP12; [3]): 31 nM
Compound: CCC(C)(C)C(=O)C(=O)N1CCC[C@H]1C(=O)SCCC(c1ccc(F)cc1)c1ccc(F)cc1 [Compound 45, 3,3-Di(para-fluoro)phenyl-1-propyl (2S)-1-(3,3-dimethyl-1,2-dioxopentyl)-2-pyrrolidinecarbothioate]

Compound: CCC(C)(C)C(=O)C(=O)N1CCCCC1C(=O)SCCCc1ccc2ccccc2c1 [Compound 53, 3-(2-Naphthyl)propyl (2R,S)-1-(3,3-dimethyl-2-oxopentanoyl)-2-piperidinecarbothioate]
- Ki (FKBP12; [3]): 261 nM

Compound: O=C(C(=O)N1CCCCC1C(=O)CCCCCc1ccccc1)C1CCCCC1 (centres unmarked) [Compound 68]
- Ki (FKBP12): 284 nM

Compound: CC(C)(C)C(=O)C(=O)N1CCCCC1C(=O)C(CCc1ccccc1)CCc1ccccc1 (centres unmarked) [Compound 69]
- Ki (FKBP12): 49 nM

- Ki (FKBP12; [3]): 457 nM
Compound: CCC(C)(C)C(=O)C(=O)N1CCC[C@H]1C(=O)CCCC(c1ccc(F)cc1)c1ccc(F)cc1 [Compound 70, 1-{(2S)-2-[5,5-di(4-Fluorophenyl)pentanoyl]-2-pyrrolidine}-3,3-dimethyl-1,2-pentanedione]

Compound: CCC(C)(C)C(=O)C(=O)N1CCC[C@H]1C(=O)OCCCc1cccnc1 [GPI 1046, 3-(3-pyridyl)-1-propyl (2s)-1-(3,3-dimethyl-1,2-dioxopentyl)-2-pyrrolidinecarboxylate]
- hair regrowth in shaved area (C57 black 6 mice [1]): essentially complete hair regrowth

Compound: CCC(C)(C)C(=O)C(=O)N1CCC[C@H]1C(=O)SCCC(c1ccccc1)c1ccccc1 [GPI 1234]
- hair growth (relative hair growth index, FIG. 5) (C57 black 6 mice [2]): dramatic hair growth
